Here are results for two compounds from US9545387B2, “Composition and kit comprising piperazine derivatives and metformin, and use thereof in the treatment of diabetes” (METABOLYS, priority 2012, dated 2017).

Assay [1] is described as follows: oral glucose tolerance test (OGTT) in normal Swiss mice fasting for 17 hours, additive effect with metformin. As to conditions: compound 1 50 mg/kg per os, metformin 300 mg/kg per os; for Glycaemia, Time 0 mn / Glycaemia, Time 90 mn: Table 1, OGTT; for Glycaemia, Time 0 mn: time 0 min; for Glycaemia, Time 90 mn: time 90 min; for drop of glycaemia area under curve after glucose load: study 1. The format is in vivo. The method, then:
The anti-diabetic action of the compounds in Examples 1 and 2 were determined via oral route in normal Swiss mice fasting for 17 hours. […] The animals were housed for a minimum time of one week after delivery (ordered from Charles River France) up until the day of experimentation in an animal facility at a temperature regulated at 21-22° C. and subjected to a light cycle (from 9 h to 17 h) and dark cycle (from 19 h to 7 h). They were fed a maintenance diet: water and food were provided ? ad libitum ? . The animals were treated via oral route 1 hour before oral administration of a glucose load (oral glucose tolerance test—OGTT). Glycaemia was measured at various times before and after this glucose load. This glycaemia was measured using a glucometer (Lifescan OneTouch Ultra, Lifescan, Johnson and Johnson Company) and OneTouch Ultra glycaemia test strips. In the Tables below n represents the number of mice included in the study. • 1. […] The 2 compounds were administered successively one hour before the glucose load. All the groups were composed of 5 mice (metformin alone, compound 1 alone, metformin+compound 1, control group with the carrier alone). Blood samples were taken at 0, 30, 60, 90 and 120 minutes after the glucose load.

Assay in assay [2]: as above
The format is in vivo. As to conditions: metformin 300 mg/kg per os; for Glycaemia, Time −60 mn / Glycaemia, Time 30 mn / Glycaemia, Time 60 mn / Glycaemia, Time 120 mn / Glycaemia, Time 0 mn / Glycaemia, Time 90 mn: OGTT; for Glycaemia, Time −60 mn: given 1 h before glucose load, time −60 min; for Glycaemia, Time 30 mn: time 30 min; for Glycaemia, Time 60 mn: time 60 min; for Glycaemia, Time 120 mn: time 120 min; for Glycaemia, Time 0 mn: time 0 min; for Glycaemia, Time 90 mn: time 90 min.

In assay [3] the test system is liver cells of rats fasting for 48 h. As to conditions: rat liver cells; stated in words, no data shown; cited from earlier work.
Setting [4] is: Table 1, compound 1 50 mg/kg per os.
Where [5] appears, read: Table 2, compound 2 50 mg/kg per os.
Where [6] appears, read: Table 3, compound 3 50 mg/kg per os.
Setting [7] is: Table 4, compound 4 50 mg/kg per os.

For the compound `O=C(O)CCC(=O)c1ccc(OCCN2CCN(c3ccccc3F)CC2)cc1` [Compound 1], in assay [1], the “Glycaemia, Time 0 mn” value stood at 4.5 ± 0.3 mM/liter; the “Glycaemia, Time 90 mn” value is on record as 6.5 ± 0.5 mM/liter; the “drop of glycaemia area under curve after glucose load” value stood at 42.5%. Further, in assay [2] (setting [4]), the “Glycaemia, Time −60 mn” value was 5.0 ± 0.2 mM/liter; the “Glycaemia, Time 30 mn” value turned out to be 15.2 ± 1.9 mM/liter; the “Glycaemia, Time 60 mn” value was found to be 10.6 ± 0.2 mM/liter; the “Glycaemia, Time 120 mn” value came to 5.3 ± 0.2 mM/liter.
Consider `CN(C)C(=N)N=C(N)N` [Metformin, metformin], for which the “Glycaemia, Time 0 mn” value was determined as 3.2 ± 0.3 mM/liter in assay [1], 3.6 ± 0.3 mM/liter in assay [2] (setting [5]), 6.0 ± 0.3 mM/liter in assay [2] (setting [6]) and 3.6 ± 0.3 mM/liter in assay [2] (setting [7]). Also, the “Glycaemia, Time 90 mn” value in assay [1] is 7.7 ± 1.0 mM/liter; in assay [2] (setting [5]) it was 8.0 ± 1.3 mM/liter; in assay [2] (setting [6]) it was 7.7 ± 0.2 mM/liter; in assay [2] (setting [7]), 9.6 ± 0.9 mM/liter. Further, the “drop of glycaemia area under curve after glucose load” value in assay [1] came to 44.2%; in assay [2] (study 2, compound 2 50 mg/kg per os), 38.7%; in assay [2] (study 3, compound 3 50 mg/kg per os) it was 68.5%; in assay [2] (study 4, compound 4 50 mg/kg per os), 54.3%. Further, the “effect on the production of 13CO2 from 2-13C-lactate” value in assay [3] was “reduces”. Further, the “effect on the synthesis of glucose” value in assay [3] is on record as “reduces”. Besides, the “Glycaemia, Time −60 mn” value is listed as 3.7 ± 0.3 mM/liter in assay [2] (setting [4]), 3.8 ± 0.1 mM/liter in assay [2] (setting [5]), 5.6 ± 0.3 mM/liter in assay [2] (setting [6]) and 4.2 ± 0.3 mM/liter in assay [2] (setting [7]). For the same compound, the “Glycaemia, Time 30 mn” value is recorded as 8.6 ± 0.5 mM/liter in assay [2] (setting [4]), 11.2 ± 0.3 mM/liter in assay [2] (setting [5]), 9.2 ± 0.8 mM/liter in assay [2] (setting [6]) and 9.5 ± 0.6 mM/liter in assay [2] (setting [7]). For the same compound, the “Glycaemia, Time 60 mn” value in assay [2] (setting [4]) came to 9.4 ± 0.8 mM/liter; in assay [2] (setting [5]) it was 9.5 ± 0.4 mM/liter; in assay [2] (setting [6]), 8.2 ± 0.4 mM/liter; in assay [2] (setting [7]) it was 11.2 ± 1.8 mM/liter. Also, the “Glycaemia, Time 120 mn” value in assay [2] (setting [4]) was 6.2 ± 0.8 mM/liter; in assay [2] (setting [5]), 8.2 ± 0.7 mM/liter; in assay [2] (setting [6]) it was 9.6 ± 0.8 mM/liter; in assay [2] (setting [7]), 8.6 ± 0.7 mM/liter.
